The values that follow come from US9820986B2, “Glycopeptide compositions” (TAIWAN HOPAZ CHEMS, MFG. CO., LTD., priority 2005, dated 2017).

One series concerns bone. Nature of the series: Bone scintographic imaging studies. It is filed as in vivo, normal female Fischer 344 rats. The conditions noted are these: 99mTc-labeled, 300 μCi, i.v.
The nature of series [1]: Renal clearance of pamidronate. The conditions noted are these: in vivo.
Another series relates to tumor. Nature of the series: Tumor response to paclitaxel treatment, imaged with 99mTc-glycopeptide. It is filed as in vivo, rats. The conditions noted are these: paclitaxel 40 mg/kg iv. How it is done:
To assess anti-angiogenic treatment response, rats were treated with paclitaxel (40 mg/kg,iv), followed by imaging with ^99mTc-glycopeptide on day 4. Tumor uptake and in situ hybridization (ISH) and TUNEL assays were conducted pre- and post-paclitaxel treatment.

In the case of `NCCC(O)(P(=O)(O)O)P(=O)(O)O` [Pamidronate], in the series with bone, the bone targeting result is “targets bone poorly”. Further, in series [1], the renal clearance result is reported as “quick renal clearance”.

Turning to `CC(=O)O[C@H]1C(=O)[C@@]2(C)[C@H]([C@H](OC(=O)c3ccccc3)[C@]3(O)C[C@H](OC(=O)[C@H](O)[C@@H](NC(=O)c4ccccc4)c4ccccc4)C(C)=C1C3(C)C)[C@]1(OC(C)=O)CO[C@@H]1C[C@@H]2O` [paclitaxel], the tumor progression entry with tumor (day 4, compared to 99mTc-glycopeptide baseline) was “no marked tumor progression”. In addition, the tumor necrosis entry with tumor (post-treatment) is on record as “clearly seen”.
